System: herpes simplex
Experiment: In vivo potency against herpes simplex infection in intra-cerebrally infected mice (survival times, MRST)
Design: species or system CD 1 mice
Conditions: for MRST: mean reciprocal survival time; for MRST / survivors / Survival Times: 50 mg/kg twice daily for 4.5 days; for MRST / Survival Times: recorded over 14 days; for survivors / Survival Times: 10 animals; for survivors: 14 days, 1 mouse died within 24 hours of infection; for Survival Times: figures = number of animals that died (on the day in parentheses)
Protocol: The compounds of Examples 1 and 2 were tested in vivo to determine their potency in vivo against herpes simplex infections. The compounds were tested in comparison with the 6-deoxy analogue of the compound of Example 1, namely 9-(3,4-dihydroxybutyI) guanine (DHBG). The following is description of the testing.
The compounds were tested in CD 1 mice infected with herpes simplex ICI cell culture stock having a titre of 1 x 10^5 plaque forming units (pfu)/ml and administered to the mice in a dose of 0.025ml by the intra-cerebral route.
The test compounds were prepared as aqueous suspensions or solutions, each compound being administered at a dose of 50 mg/kg in a volume of 0.1 ml, by either the oral or sub-cutaneous (s.c.) route, to a treatment group of animals. Each group contained 10 animals for each compound and for each route of administration.
Treatment of the animals commenced 2-3 hours after infection and continued twice daily for 4.5 days.
A group of 13 animals which were infected but untreated served as controls.
Survival times for the test animals were recorded over 14 days and expressed as mean reciprocol survival times (MRST).
The results shown in the following table were obtained in which the figures in the column headed "Survival Times" indicate the number of animals that died on the day indicated in parentheses.

Nc1ncc2ncn(COCC(O)CO)c2n1 (stereo not drawn) [Example 2] gave an MRST (oral) of 0.059, an MRST (s.c.) of 0.054 and a survivors (oral) of 5. For the same compound, the “Survival Times” value (oral) was 1(6), 1(7), 1(8), 1(10.5), the survivors (s.c.) was 5 and the “Survival Times” value (s.c.) was 3(8), 1(9). For the same compound, the “antiviral effect in vivo against HSV” value (summary statement, particularly in comparison with DHBG) was “potent antiviral effect”.
Nc1nc2c(ncn2CCC(O)CO)c(=O)[nH]1 (stereo not drawn) [DHBG, 9-(3,4-dihydroxybutyI) guanine, reference compound] was tested, and the MRST (oral) was 0.18, the MRST (s.c.) was 0.155 and the “Survival Times” value (oral) was 1(4.5), 3(5), 5(6), 1(7). The “Survival Times” value (s.c.) was 1(5), 3(6), 5(7), 1(7.5).
For Nc1ncc2ncn(CCC(O)CO)c2n1 (stereo not drawn) [Example 1, 2-Amino-9-(3,4-dihydroxybutyl)-9H-purine], the MRST (oral) was 0.154, the MRST (s.c.) was 0.160 and the “Survival Times” value (oral) was 1(5), 4(6), 3(7), 1(7.5), 1(9). The “Survival Times” value (s.c.) was 7(6), 3(7).
